# US20220233556A1, “COMPOSITIONS AND METHODS FOR TREATING OPHTHALMIC CONDITIONS” (Medicon Pharmaceuticals, Inc., priority 2017, published 2022)
# What was measured:
# MMPs = assay: MMP activity in the cornea of rabbits; format: in vivo; conditions: naïve rabbits, topical, 1 h
# Method: FIGS. 8A and 8B illustrate that PS suppresses the levels and activity of MMPs. In FIG. 8A, the human conjunctival cells were treated with PS at 1×IC50 (TNF-α was added to the culture medium at a concentration of 10 ng/ml 2 h after PS. The levels of MMP-1 in the culture medium were determined by ELISA as in Methods (n=3). Values=mean±SEM. In FIG. 8B, two groups of rabbits with Con A-induced DED were treated with vehicle or PS for 1 week as in Methods. Naïve rabbits served as controls. MMP-9 levels in the ILG (top) and the aqueous humor (middle) were determined by ELISA. MMP activity was determined in the cornea of naïve and PS- or ketorolac-treated rabbits with Con A-induced DED as previously. n=8 eyes/group. Values=mean±SEM.
# In an acute experiment, naïve rabbits were treated with either PS or ketorolac (both administered topically) for 1 h and determined the activity of MMP in the cornea. This assay determines the activity of MMPs collectively in a given tissue.
# PGE2 = PGE2 levels in tears and cornea of rabbits (ELISA); format: in vivo; conditions: rabbits with Con A-induced DED, administered once topically, 1 h later
# Method: FIGS. 9A and 9B illustrate that PS preserves the levels of PGE2 in tears and the cornea. In FIG. 9A, PGE2 levels were determined by ELISA in tears collected on day 7 from naïve rabbits and rabbits with Con A-induced DED treated for 1 week with vehicle or PS. In FIG. 9B, PGE2 levels were further examined. Upper panel: PGE2 levels in the tears of naïve rabbits and rabbits with Con A-induced DED treated for 1 h with PS or ketorolac as in Methods. Lower panel: PGE2 levels in the corneal tissue of naïve rabbits and rabbits with Con A-induced DED treated for 1 week with vehicle or PS or ketorolac or diclofenac. n=8 eyes/group. Values=mean±SEM.
# It was determined that the levels of PGE2 in rabbit tears in three groups of rabbits, naïve and those with Con A-induced DED that were treated for 1 week either with PS or vehicle.
# In an acute experiment, administered once topically to the eyes of four groups of rabbits with Con A-induced DED was one of the following: vehicle, PS, ketorolac or diclofenac; the latter two are NSAIDs used for the treatment of ocular inflammation and pain. It was determined that the levels of PGE2 in the cornea of these rabbits obtained 1 h later as well as in the corneas of naïve rabbits.
# corneal sensitivity = assay: Corneal touch threshold (CTT) assay, Cochet-Bonnet aesthesiometer; format: in vivo, rabbits; conditions: commercially available form, one eye drop
# Method: FIGS. 10A and 10B illustrate the ocular analgesic effect of PS. FIG. 10A: One drop of PS 0.5%, vehicle, or lidocaine was applied to one eye of rabbits (n=4/group) and the corneal touch threshold (CTT) was determined using an Eshesiometer. Vehicle had no effect on CTT (not shown; overlaps with the 0 value horizontal line). Values=mean±SEM. FIG. 10B: PS 0.5% in formulations differing in pH as indicated produced different analgesic responses in rabbits. The areas under each curve (AUC), indicted in the figure, that quantify these responses vary by as much as >5 fold. Values are the average of 2; all were within 11% of each other.
# FIGS. 11A and 11B illustrates the effect of various concentrations of PS on corneal sensitivity determined by the corneal touch threshold (CTT) assay. The CTT score is expressed as length of filament. Measurements were performed at the indicated time points after a single application of PS as an eye drop. Rabbits with normal or dry eyes were studied (n=6 eyes per group). Dry eyes were induced by Concanavalin A injection as described in the text. The % PS content in each study is shown. The numbers in parentheses indicate the corresponding value of the area under the curve. Values=mean±SEM.
# FIGS. 12A and 12B illustrate the effect of various drugs on corneal sensitivity determined by the corneal touch threshold (CTT) assay described herein. Each drug was used in its commercially available form; one eye drop of each was applied. The numbers in parentheses indicate the corresponding value of the area under the curve. Values=mean±SEM.
# The analgesic effect of PS was examined on the surface of the eye by determining the corneal touch threshold (CTT) using the Luneau Cochet-Bonnet Aesthesiometer (Western Ophthalmics, Lynwood, Wash.) an adjustable nylon monofilament with a defined diameter, which is applied in different lengths to the center of the cornea.
# In this embodiment, the composition of the PS preparation was: 0.5% PS, 18% (2-hydroxypropyl)-β-cyclodextrin (HP-β-CD), 1-4% Tween 80. Preparation Method: HP-β-CD was dissolved in purified water maintained in a 50° C. water bath. PS was added into this solution and kept at 50° C. overnight with stirring at 500 rpm until PS was fully dissolved. Tween 80 was added into the PS HP-β-CD solution, which was then centrifuged at 3000 rpm for 10 min to remove undissolved particles. The supernatant was collected and pH was adjusted to the desired value using a NaOH solution. The analgesic effect of PS was examined as above.
# The effect of PS and other compounds on corneal sensitivity was determined in rabbits with normal or dry eyes using the CTT assay as above; DED was induced by Concanavalin A as previously described. The CTT score, expressed as filament length in mm, of normal eyes was 5.56±0.11 mm (mean±SEM for this and subsequent values) and in dry eyes 4.17±0.12 mm; the difference between the two is statistically significant (p<0.0001).
# Con A-induced dry eye = Con A-induced dry eye disease (DED) in rabbits: TBUT, tear osmolarity, STT, tear lactoferrin; format: in vivo, New Zealand White (NZW) rabbits; conditions: 1 week of treatment, comparison with ophthalmic NSAIDs (FIG. 5)
# Method: Con A was injected under ultrasound guidance into all the lacrimal glands and the success of the injection was verified by a post-injection ultrasound image (see FIG. 1 and FIG. 2). […] This variation explains why the blind injections recommended in the original method are often unsuccessful. This was confirmed by mixing the Con A solution with methylene blue and tracking its course after injection. In about ⅓ of the cases, Con A ended up outside the gland.
# Four parameters of efficacy were evaluated instead of the usual one or two. They include (a) the tear break up time (TBUT), determined using 0.2% fluorescein over the eye and recording the time taken to develop black dots, lines or obvious disruption of the fluorescein film; (b) tear osmolarity, measured using TearLab Osmolarity Test and following the manufacturer's instructions (TearLab Corp., San Diego, Calif.); (3) Schirmer tear test (STT), determined using Schirmer strips (EagleVision, Denville, N.J.) inserted between the cornea and the palpebral conjunctiva at the mid-point of the lower lid and measuring the length of moistened strip at 5 min; and (4) tear lactoferrin levels measured by ELISA kit (MyBiosource, San Diego, Calif.) following the instructions of the manufacturer. All four have been used in clinical practice and correlate with the clinical activity of the disease. The STT is the least reliable and, as result, it is clinically used less than half as frequently as TBUT.
# The injections of Con A to the lacrimal glands were repeated weekly as needed. When longer than a 1-week periods of study are needed, repeat injections prolong dry eye for at least 3 weeks, making the originally acute model chronic.
# PS Suppresses Con A—Induced Dry Eye in Rabbits. The effect of PS on dry eye was determined in New Zealand White (NZW) rabbits, 2-3 kg (Charles River Labs, Waltham, Mass.). These rabbits were housed singly in rooms with strict temperature (70±5° F.) and humidity (45±5%) control and acclimated for at least 2 weeks prior to induction of dry eye by injection of Con A as above. NZW rabbits with Con A-induced dry eye (three sets of injections) were treated with PS formulated as nanoparticles and administered topically as eye drops 3×/day for 21 days, starting on the day of Con A injection. […] Similar results were obtained on days 5 and 14 (data not shown). […]
# The efficacy of lower concentrations of PS. The efficacy of lower concentrations of PS, 0.1% and 0.2% in DED, was also evaluated. The same animal model (rabbits with Concanavalin A-induced DED) was used. The same methodology described herein was followed, except that PS was administered as two eye drops per eye (˜25 μL each) four times a day. PS was formulated in: 10% (2-hydroxypropyl)-β-cyclodextrin, 4% Tween 80, 2.5% Vitamin E TPGS, 1.4% polyvinyl alcohol (13,000-26,000 molecular weight), 0.001% polyquad, as described herein. The Table below summarizes the corresponding findings: […]
structure (smiles),measurement,setting,value
"O=C(c1ccccc1)c1ccc2n1CCC2C(=O)O (stereo not shown) [ketorolac, reference compound]",suppression of the activity of MMPs in the cornea,MMPs,failed to affect
same,PGE2 levels in the cornea,PGE2,suppressed nearly completely
same,"effect on corneal sensitivity (CTT), dry eyes",corneal sensitivity,no analgesic effect
same,"effect on corneal sensitivity (CTT), normal eyes",corneal sensitivity,display analgesic efficacy
same,STT,Con A-induced dry eye,failed to improve
same,TBUT,Con A-induced dry eye,failed to improve
same,osmolarity,Con A-induced dry eye,failed to improve
